Here are results for 3 compounds from US9494589B2, “Method of determining the probability of a therapeutic response in cancer chemotherapy with cardiac glycoside” (priority 2007, dated 2016).

The structures appear in SMILES notation.

What is called IC50 is the concentration at which inhibition is half-maximal.

Test [1] concerns rodent (mouse and rat) tumor cell lines. The test is described as follows: In vitro proliferation of rodent tumor cell lines. The settings on record: rodent tumor cell lines lacking α3 subunit isoform. The format is cell-based. The text has this: Rodent (rat or mouse) cancer cells can be used as a negative control sample. FIG. 1A depicts a film developed against the gel of a Western blot analysis of rodent tumor cell lines. […] Human tumor cell lines are generally more sensitive to treatment with cardiac glycoside-containing composition than are murine tumor cells (FIG. 1B). The inventors believe this difference in therapeutic responsiveness is due to the differences in the ratio of α3 to α1 isoforms in the two different species, as noted above.

Test [2] deals with Human pancreatic cancer PANC-1 cells. The test can be described thus: Cytotoxicity comparison of oleandrin and extracts, crystal violet staining. The format is cell-based. The settings on record: oleandrin equivalent concentrations, 72 hr. The method, then: (§1) The cytotoxic potential of both extracts are compared directly with that of oleandrin. The samples contained the same amounts of oleandrin even though their concentration of oleandrin differed due to the concentration of oleandrin present in the extracts.
(§2) BRO (human melanoma) and Panc-1 (human pancreatic cancer) cells (8×10^3/well) were plated in a 96 well plate and allowed to attach overnight. Drug or extracts were then added to the cells. After 72 hr of incubation, relative cell proliferation (relative to control untreated cells) was assessed by crystal violet staining method.

The subject of another test is Human melanoma BRO cells. The description is as above. The format is cell-based. To be noted: oleandrin equivalent concentrations, 72 hr. On the procedure:
as §1, §2

In test [3] the test system is non-transfected Panc-1 cells. The test can be described thus: Sensitivity to oleandrin of non-transfected Panc-1 cells. The format is cell-based. The settings on record: Homo sapiens. The text has this:
(§3) Still further proof of the relative importance of the α3/α1 isoform ratio toward predictability of a therapeutic response by a target malignant tissue to treatment with a cardiac glycoside was established by transfection of Panc-1 cells with α1 subunit isoform. The Na, K-ATPase α1 subunit isoform was transfected to Panc-1 cells, which normally lack α1 expression. The control sample in FIG. 5A is for non-transfected Panc-1 cells, and the α1cDNA sample in FIG. 5A is for Panc-1 cells transfected with the α1 subunit isoform. As a result, the ratio of α3 to α1 was reduced in the transfected Panc-1 cells (FIG. 5B). The sensitivity of the transfected Panc-1 cells to oleandrin treatment was then evaluated.

The test system of test [4] is α1 transfected Panc-1 cells. The test can be described thus: Sensitivity to oleandrin of Panc-1 cells transfected with α1 subunit isoform. The settings on record: Homo sapiens. The format is cell-based.
Source text: as §3

For test [5], the system named is Panc-1 cells transfected with α3 siRNA. The test can be described thus: Sensitivity to oleandrin of Panc-1 cells transfected with α3 siRNA, Calcein AM viability. The format is cell-based, human. The settings on record: α3 expression reduced by siRNA; 10 to 50 nM, 48 hr. The text has this:
Further proof of the relative importance of the α3/α1 isoform ratio toward predictability of a therapeutic response by a target malignant tissue to treatment with a cardiac glycoside was established as follows. Artificial down-regulation of the expression of α3 isoform in human pancreatic cancer cells, i.e. manipulation of isoform content of subunits of Na, K-ATPase, was achieved by transfection of cells with siRNA (silencing RNA) specific to the α3 isoform. […] Quantitation of the decreased expression of α3 by Western blot is detailed in FIG. 4B.
Panc-1 cells were plated in 6 and 48 well plates and allowed to attach overnight. Transient transfection of α3 siRNA molecules was carried out using siPORT™ Amine Transfection Agent (Ambion Austin, Tex.) and 0.4 μM α3 silencing RNA (Santa Cruz Biotech.) following the manufacture's instructions. Twenty-four hr after transfection, cells were treated with 10 to 50 nM oleandrin for 48 hr. Protein was collected from the 6 well plates for Western blot analysis and cell viability assessment was carried out by Calcien AM staining.

The next test concerns PANC1 cells. The test can be described thus: In vitro cytotoxicity, MTT assay of cell proliferation. The format is cell-based, human. The settings on record: PANC1, Pancreas, 72 hr; for IC50: Homo sapiens, PANC-1. The text has this:
(§4) As defined in the Tables above, an “in vitro response” denotes the extent to which proliferation of a given tumor cell line is inhibited with a stated concentration of drug (cardiac glycoside) over a defined period of time. A designation of “no response” denotes less than 50% growth inhibition at any of the multiple drug concentrations tested. That is, no concentration could be identified as an IC50 value (that concentration producing inhibition of cell growth by 50% over the stated period of time of the experiment). Accordingly, were this tumor cell line growing in a mammal such as a human, it is probable that the drug would be ineffective in producing significant inhibition of tumor growth. The designation of “partial response” in the Table above denotes the capacity of a given cardiac glycoside such as oleandrin or bufalin to inhibit cell proliferation by more than 50% but less than 75% relative to nontreated tumor cell growth. Accordingly, this would equate to a partial or less than complete therapeutic response of the tumor to the cardiac glycoside if this product were used to treat tumor growth in a mammal such as a human. […] Accordingly, it is probable that total inhibition of tumor growth (or a complete therapeutic response, in a mammal might be achieved.
(§5) Cells were grown in their relevant media as indicated in the table below at a density of 1×10^4 cells/well. After a 24 hr incubation period, cells were treated with various concentrations of oleandrin (1 to 500 nM). After an additional 72 hr, inhibition of cellular proliferation was assessed by MTT assay (23). Absorbance was read at a wavelength of 570 nm and a reference wavelength of 650 nm using a V-Max Micro-plate Reader by Molecular Devices, Inc. (Sunnyvale, Calif.). The relative extent of inhibition of cell proliferation due to the presence of a given concentration of oleander extract or other plant extract containing a cardiac glycoside compound(s) can be derived by comparing treated to non-treated cell numbers after a set period of time allowing for cell growth (e.g. 24-72 hr).
Background: Tetrazolium dyes change colour on reduction, which living cells bring about.

The next test has as its system HT29 cells. The test is described as above. The settings on record: HT29, Colon, 72 hr. The format is cell-based, human.
Source text: as §4, §5

Another test has as its system BRO cells. Described as above. The settings on record: Melanoma, 72 hr. The format is cell-based, human.
Source text: as §4, §5

For the next test, the system named is CACO2 cells. Described as above. To be noted: CACO2, Colon, 72 hr. The format is cell-based, human.
Source text: as §4, §5

For another test, the system named is HCT116 cells. Described as above. The format is cell-based, human. To be noted: HCT116, Colon, 72 hr.
Source text: as §4, §5

The next test has as its system SUM149 cells. Described as above. The format is cell-based, human. The settings on record: SUM149, Breast, 72 hr.
Source text: as §4, §5

The test system of a further test is BXPC3 cells. The description is as above. The format is cell-based, human. The settings on record: BXPC3, Pancreas; 72 hr.
Source text: as §4, §5

The next test deals with MiaPaca cells. Described as above. The format is cell-based, human. To be noted: 72 hr; for IC50: Homo sapiens, MIA PaCa-2, Pancreas; for In vitro response: Pancreas.
Source text: as §4, §5

In a further test the test system is MDA231 cells. The test is described as above. The format is cell-based, human. The settings on record: MDA231, Breast; 72 hr.
Source text: as §4, §5

For the next test, the system named is MCF7 cells. The test is described as above. The format is cell-based, human. The settings on record: MCF7, Breast; 72 hr.
Source text: as §4, §5

The next test has as its system DOD-1 cells. The test is described as above. The format is cell-based, human. The settings on record: DOD-1, Colon, 72 hr.
Source text: as §4, §5

Another test has as its system LS174T cells. The description is as above. The format is cell-based, human. The settings on record: Colon, 72 hr.
Source text: as §4, §5

For the next test, the system named is human tumor cell lines. The test can be described thus: Mean IC50 of growth inhibition in groups of tumor cell lines by α3/α1 isoform ratio. The format is cell-based. The settings on record: ten cell lines α3/α1 >1.0 versus six cell lines α3/α1 <1.0. On the procedure:
FIG. 3A depicts a plot of concentration (nM) of oleandrin (provided as oleandrin) versus the percentage of growth of control. […] Exemplary cell lines for the groups are: Group I-MDA231, BXPC3, MCF-7; Group II-SUM149, BRO; Group III-Panc-1, CaCo2. The response data are as predicted by the isoform ratio data. In order to establish the robustness of the method and kit of the invention, a statistical analysis of cellular response data was conducted. The data in FIG. 3B depict the relative ability of oleandrin-containing composition to inhibit human tumor cell proliferation in vitro. The data are depicted as Mean±SD. Oleandrin mediated growth inhibition was examined in ten cell lines (representing a variety of solid tumors) in which the relative subunit content α3/α1 isoform ratio >1.0 and six cell lines in which the α3/α1 isoform ratio <1.0.
Student's t test was used to determine the statistical differences between various experimental groups; a value of P<0.05 was considered to be significant.

For the compound `C[C@@H]1O[C@@H](O[C@H]2C[C@@H](O)[C@]3(CO)[C@H]4[C@H](O)C[C@]5(C)[C@@H](C6=CC(=O)OC6)CC[C@]5(O)[C@@H]4CC[C@]3(O)C2)[C@H](O)[C@H](O)[C@H]1O` [ouabain], the “Inhibition of proliferation in vitro” value in test [1] is reported as “not significantly inhibited”.
On to `CO[C@H]1C[C@H](O[C@H]2CC[C@@]3(C)[C@H](CC[C@@H]4[C@@H]3CC[C@]3(C)[C@@H](C5=CC(=O)OC5)[C@@H](OC(C)=O)C[C@]43O)C2)O[C@@H](C)[C@@H]1O` [oleandrin], for which, in [1], the “Inhibition of proliferation in vitro” value is listed as “not significantly inhibited”. The IC50 was 10 nM in test [2]; 17 nM with Human melanoma BRO cells; 4.1 nM in test [3]; over 50 nM in test [4]; 6.1 nM with PANC1 cells; 15.6 nM with HT29 cells (Homo sapiens, HT-29). In addition, the IC50 was 8.2 nM in the test on BRO cells (Homo sapiens); 9.4 nM in the test on CACO2 cells (Homo sapiens, Caco-2); 36.2 nM in the test on HCT116 cells (Homo sapiens, HCT-116); 22.5 nM with SUM149 cells (Homo sapiens); 14.2 nM with MiaPaca cells; 19.6 nM in the test on DOD-1 cells (Homo sapiens). In the test on LS174T cells (Homo sapiens), this compound came in with an IC50 of 20.7 nM. Moreover, the “Sensitivity of transfected cells to treatment” value in [5] was “lose their sensitivity”. Moreover, the In vitro response entry in the test on PANC1 cells is “Complete*** (Denotes greater than 75% growth inhibition achieved at 62 nM)”; in the test with HT29 cells, “Complete*** (Denotes greater than 75% growth inhibition achieved at 62 nM)”; with BRO cells it was “Complete*** (Denotes greater than 75% growth inhibition achieved at 62 nM)”; with CACO2 cells, “Complete*** (Denotes greater than 75% growth inhibition achieved at 62 nM)”; in the test with HCT116 cells it was “Partial** (Denotes greater than 50% but less than 75% growth inhibition achieved at 62 nM)”; in the test on SUM149 cells, “Partial** (Denotes greater than 50% but less than 75% growth inhibition achieved at 62 nM)”. Further, the In vitro response entry in the test on BXPC3 cells is given as “No* (Denotes less than 50% growth inhibition achieved at concentrations up to 125 nM)”; in the test on MiaPaca cells it was “Complete*** (Denotes greater than 75% growth inhibition achieved at 62 nM)”; with MDA231 cells it was “No* (Denotes less than 50% growth inhibition achieved at concentrations up to 125 nM)”; in the test on MCF7 cells, “No* (Denotes less than 50% growth inhibition achieved at concentrations up to 125 nM)”; in the test with DOD-1 cells, “Complete*** (Denotes greater than 75% growth inhibition achieved at 62 nM)”; in the test on LS174T cells, “Complete*** (Denotes greater than 75% growth inhibition achieved at 62 nM)”. For the same compound, in the test with human tumor cell lines, the “Difference in mean IC50 between cell line groups” value is given as 8 fold.
With `C[C@]12CC[C@H](O)C[C@H]1CC[C@@H]1[C@@H]2CC[C@]2(C)[C@@H](c3ccc(=O)oc3)CC[C@]12O` [bufalin], the “Inhibition of proliferation in vitro” value in [1] is “not significantly inhibited”. In addition, the 50% inhibitory concentration (IC50) in the test with PANC1 cells worked out at 1.2 nM; in the test on MiaPaca cells, 2.1 nM. Moreover, the In vitro response result is recorded as “Complete*** (Denotes greater than 75% growth inhibition achieved at 62 nM)” in the test on PANC1 cells, “No* (Denotes less than 50% growth inhibition achieved at concentrations up to 125 nM)” in the test on BXPC3 cells and “Complete*** (Denotes greater than 75% growth inhibition achieved at 62 nM)” with MiaPaca cells.
